Article PMC5727045, “Anti-biofilm Properties of Bacterial Di-Rhamnolipids and Their Semi-Synthetic Amide Derivatives” (Frontiers in Microbiology, 2017)
Converted amounts (≈) assume the structure as drawn. “Also recorded” adds a separate entry of the source.

Assays:
P. aeruginosa DM50 [1] = assay: MIC, broth microdilution, planktonic cells; format: cell-based; conditions: Pseudomonas aeruginosa; P. aeruginosa DM50, 24 h incubation
Text: (§1) Test organisms for the antibacterial assays were obtained from the National Collection of Type Cultures (NCTC) and the American Type Culture Collection (ATCC). P. aeruginosa PAO1 NCTC 10332, S. aureus ATCC 25923 and S. aureus ATCC 43300 (MRSA) and S. marcescens ATCC 27117 were used in this study. One clinical isolate of P. aeruginosa DM50 with high ability to form biofilms and resistance to metronidazole, clindamycin and amoxicillin was also included ([Glisic et al., 2016]). Bacterial strains were grown in Luria Bertani (LB) broth at 37°C on a rotary shaker at 180 rpm.
(§2) The minimum inhibitory concentration (MIC) of rhamnolipids and their derivatives were determined according to standard broth microdilution assays recommended by the National Committee for Clinical Laboratory Standards (M07-A8).
(§3) Stock solutions of rhamnolipids and derivatives were prepared in DMSO (50 g L^-1, w/v). The highest concentration used was 500 mg L^-1. The inoculums were 10^5 colony forming units (cfu) mL^-1.

P. aeruginosa PAO1 [2] = assay: MIC, broth microdilution, planktonic cells; format: cell-based; conditions: Pseudomonas aeruginosa; P. aeruginosa PAO1, 24 h incubation
Text: as §1, §2, §3

S. aureus ATCC 25923 [3] = assay: MIC, broth microdilution, planktonic cells; format: cell-based; conditions: Staphylococcus aureus, ATCC25923, 24 h, S. aureus ATCC 25923, 24 h incubation
Text: as §1, §2, §3

S. aureus MRSA [4] = assay: MIC, broth microdilution, planktonic cells; format: cell-based; conditions: Staphylococcus aureus, 24 h, 24 h incubation
Text: as §1, §2, §3

S. marcescens ATCC 27117 [5] = assay: MIC, broth microdilution, planktonic cells; format: cell-based; conditions: Serratia marcescens, ATCC27117; S. marcescens ATCC 27117, 24 h incubation
Text: as §1, §2, §3

P. aeruginosa PAO1 [6] = assay: Inhibition of biofilm formation, crystal violet; format: cell-based, Pseudomonas aeruginosa; conditions: for Biofilm formation (%): P. aeruginosa PAO1, 50 μg mL^-1
Text: as §1
(§4) Biofilm quantification assays were performed in 96-well microtiter plates using a crystal violet (CV) method to stain adherent cells ([Merritt et al., 2005]). Overnight cultures of bacteria were diluted to 5 × 10^7 cfu mL^-1 in LB and 100 μL was added to the wells in the presence of test compounds or DMSO (0.1%, v/v). Biofilms formed for 24 h at 37°C for P. aeruginosa and S. aureus, or 30°C for S. marcescens were washed and adherent cells stained with CV 0.1% (v/v). BFIC50 (concentration of compound that inhibited biofilm formation by 50%) was determined for each compound.
The effect of rhamnolipids on P. aeruginosa biofilm formation was examined additionally by introducing 3 h adhesion phase after inoculation with 5 × 10^7 cfu mL^-1 cells. Following adhesion, the supernatant was removed and, after two washing steps with phosphate buffered saline (PBS), test compounds or DMSO were applied and the biofilms were quantified after 24 h using CV. Each biofilm formation assay was performed in six wells and repeated at least three times.

P. aeruginosa DM50 [7] = assay: Inhibition of biofilm formation, crystal violet; format: cell-based, Pseudomonas aeruginosa; conditions: P. aeruginosa DM50, 50 μg mL^-1
Text: as §1, §4

S. aureus ATCC 25923 [8] = assay: Inhibition of biofilm formation, crystal violet; format: cell-based, Staphylococcus aureus; conditions: S. aureus ATCC 25923, 50 μg mL^-1
Text: as §1, §4

S. aureus MRSA [9] = assay: Inhibition of biofilm formation, crystal violet; format: cell-based, Staphylococcus aureus
Text: as §1, §4

S. marcescens ATCC 27117 [10] = assay: Inhibition of biofilm formation, crystal violet; format: cell-based, Serratia marcescens; conditions: S. marcescens ATCC 27117, 50 μg mL^-1
Text: as §1, §4

P. aeruginosa DM50 [11] = assay: Biofilm dispersion assay, crystal violet; format: cell-based, Pseudomonas aeruginosa; conditions: P. aeruginosa DM50, 50 μg mL^-1
Text: as §1
(§5) An overnight culture of P. aeruginosa was diluted to 5 × 10^7 cfu mL^-1 in LB and 100 μL was added to the wells in 96-well microtiter plates and incubated for 24 h at 37°C. After removal of the supernatant and two washing steps with PBS adherent cells were treated with different concentrations of rhamnolipids or derivatives for additional 24 h and the biofilms were quantified using CV as described above. Biofilm dispersion assays were performed in six wells and repeated three times.

P. aeruginosa PAO1 [12] = assay: Biofilm dispersion assay, crystal violet; format: cell-based, Pseudomonas aeruginosa; conditions: for Biofilm biomass (%) remained after biofilm dispersion: P. aeruginosa PAO1, 50 μg mL^-1
Text: as §1, §5

S. aureus ATCC 25923 [13] = assay: Biofilm dispersion assay, crystal violet; format: cell-based, Staphylococcus aureus; conditions: S. aureus ATCC 25923, 50 μg mL^-1
S. aureus MRSA [14] = assay: Biofilm dispersion assay, crystal violet; format: cell-based, Staphylococcus aureus
S. marcescens ATCC 27117 [15] = assay: Biofilm dispersion assay, crystal violet; format: cell-based, Serratia marcescens; conditions: S. marcescens ATCC 27117, 50 μg mL^-1
Text: as §1, §5

[16] = tested on: MRC5 human lung fibroblasts; assay: Cytotoxicity assay, MTT; format: cell-based; conditions: concentrations up to 100 μg mL^-1, MTT, 48 h
Protocol: MRC5 human lung fibroblasts were obtained from the ATCC. Cells were maintained as monolayer cultures in RPMI-1640 supplemented with 100 mg L^-1 streptomycin, 100 U mL^-1 penicillin and 10% (v/v) FBS (all from Sigma, Munich, Germany). Cells were grown in a humidified atmosphere of 95% air and 5% CO2 at 37°C.
Cytotoxicity on MRC5 cells was evaluated with 3-(4,5-dimethylthiazol-2-yl)-2,5-diphenyltetrazolium bromide (MTT). The assay was carried out after 48 h of cell incubation in the media containing test compounds at different concentrations and the viability was measured as described ([Mihajlovic et al., 2012]). The results are presented as the percentage of the control (untreated cells) that was arbitrarily set to 100%.

P. aeruginosa PAO1-GFP = assay: Anti-adhesion assay, GFP fluorescence; format: cell-based, Pseudomonas aeruginosa; conditions: 2 h
Protocol: Anti-adhesion assay was performed as previously described ([Shetye et al., 2014]) with some modifications. An overnight culture of P. aeruginosa PAO1 containing pBBR2-GFP ([da Silva et al., 2014]) was subcultured (initial OD600 = 0.02) in M9+/LB (95:5) containing gentamycin (80 mg L^-1), tetracycline (20 mg L^-1), and chloramphenicol (50 mg L^-1) at 37°C in a rotary shaker (200 rpm). After reaching OD600 = 0.1, aliquots (200 μL) were transferred to the wells of black polystyrene microtiter plate with rhamnolipids, derivatives or DMSO (control). After incubation at 37°C for 2 h, bacterial cultures were discarded, and the fluorescence of adherent cells was measured after addition of fresh M9+/LB (95:5) medium using Tecan Infinite 200 Microplate reader (Tecan Group Ltd., Switzerland, lex = 500 nm, lem = 540 nm). Background signal (M9+/LB (95:5) was subtracted from all the samples. Assays were repeated three times; inhibition values are the averages of six replicate wells from one experiment.

[17] = listed as Rha-TBDMS (Lysinibacillus sp. BV152.1)
[18] = 50 μg mL^-1, listed as Rha-TBDMS (Lysinibacillus sp. BV152.1)

| Structure (SMILES) | MIC (P. aeruginosa DM50 [1]) [µg/mL] | MIC (P. aeruginosa PAO1 [2]) [µg/mL] | MIC (S. aureus ATCC 25923 [3]) [µg/mL] | MIC (S. aureus MRSA [4]) [µg/mL] | MIC (S. marcescens ATCC 27117 [5]) [µg/mL] | Biofilm formation (%) (P. aeruginosa PAO1 [6]) | Biofilm formation (%) (P. aeruginosa DM50 [7]) | Biofilm formation (%) (S. aureus ATCC 25923 [8]) | Biofilm formation (%) (S. aureus MRSA [9]; 50 μg mL^-1) | Biofilm formation (%) (S. marcescens ATCC 27117 [10]) | Biofilm biomass (%) remained after biofilm dispersion (P. aeruginosa DM50 [11]) [%] | Biofilm biomass (%) remained after biofilm dispersion (P. aeruginosa PAO1 [12]) [%] | Biofilm biomass (%) remained after biofilm dispersion (S. aureus ATCC 25923 [13]) [%] | Biofilm biomass (%) remained after biofilm dispersion (S. aureus MRSA [14]; 50 μg mL^-1) [%] | Biofilm biomass (%) remained after biofilm dispersion (S. marcescens ATCC 27117 [15]) [%] | Viability of human lung fibroblasts (MRC5) [16] | other results |
| --- | --- | --- | --- | --- | --- | --- | --- | --- | --- | --- | --- | --- | --- | --- | --- | --- | --- |
| CCCCCCCC(CC(=O)O)OC(=O)CC(CCCCCCC)O[C@@H]1O[C@@H](C)[C@H](O)[C@@H](O)[C@H]1O[C@@H]1O[C@@H](C)[C@H](O)[C@@H](O)[C@H]1O (stereo partly drawn) [di-Rha, Rha-Rha-C10-C10] | > 500 | > 500 | > 500 | > 500 | > 500 | 50 ± 3 | 109 ± 10 | 37 ± 4 | 44 ± 11 | 20 ± 5 | 135 ± 10 | 77 ± 3 | 80 ± 9 | 82 ± 7 | 193 ± 8 | not affected; also recorded: not toxic | effect on biofilm formation when bacteria were left to attach prior to treatment (P. aeruginosa PAO1 [6]; P. aeruginosa PAO1, concentrations up to 50 μg mL^-1): stimulated biofilm formation; IC50 (P. aeruginosa PAO1 [6]; Pseudomonas aeruginosa, P. aeruginosa PAO1, 24 h, read-out: BFIC50 (concentration of compound that inhibited biofilm formation by 50%)): 75 µg/mL (≈ 115 µM); disruption of pre-formed biofilms (P. aeruginosa PAO1 [12]; 24 h old P. aeruginosa biofilms, 100 μg mL^-1): up to 20% |
| CCCCCCCC(CC(=O)O)OC(=O)CC(CCCCCCC)O[C@@H]1O[C@@H](C)[C@H](O[Si](C)(C)C(C)(C)C)[C@@H](O[Si](C)(C)C(C)(C)C)[C@H]1O[C@@H]1O[C@@H](C)[C@H](O[Si](C)(C)C(C)(C)C)[C@@H](O[Si](C)(C)C(C)(C)C)[C@H]1O[Si](C)(C)C(C)(C)C (some centres unmarked) |  |  |  |  |  |  |  |  |  |  |  |  |  |  |  |  | anti-biofilm formation activity (P. aeruginosa PAO1 [6]; P. aeruginosa PAO1): no anti-biofilm formation activity; Biofilm formation (%) (P. aeruginosa PAO1 [6]; [17]): 115 ± 10%; Biofilm formation (%) (P. aeruginosa DM50 [7]; [17]): 100 ± 8%; Biofilm formation (%) (S. aureus ATCC 25923 [8]; [17]): 88 ± 12%; Biofilm formation (%) (S. aureus MRSA [9]; [18]): 106 ± 4%; Biofilm formation (%) (S. marcescens ATCC 27117 [10]; [17]): 85 ± 1%; Biofilm biomass (%) remained after biofilm dispersion (P. aeruginosa DM50 [11]; [17]): 65 ± 1%; Biofilm biomass (%) remained after biofilm dispersion (P. aeruginosa PAO1 [12]; [17]): 80 ± 6%; Biofilm biomass (%) remained after biofilm dispersion (S. aureus ATCC 25923 [13]; [17]): 110 ± 22%; Biofilm biomass (%) remained after biofilm dispersion (S. aureus MRSA [14]; [18]): 101 ± 14%; Biofilm biomass (%) remained after biofilm dispersion (S. marcescens ATCC 27117 [15]; [17]): 99 ± 8% |
| CCCCCCCC(CC(=O)O)OC(=O)CC(CCCCCCC)O[C@@H]1O[C@@H](C)[C@H](O[Si](C)(C)C(C)(C)C)[C@@H](O[Si](C)(C)C(C)(C)C)[C@H]1O[C@@H]1O[C@@H](C)[C@H](O[Si](C)(C)C(C)(C)C)[C@@H](O[Si](C)(C)C(C)(C)C)[C@H]1O[Si](C)(C)C(C)(C)C (some centres unmarked) [di-Rha-TBDMS (P. aeruginosa)] | > 500 | > 500 | > 500 | > 500 | > 500 | 95 ± 7 | 73 ± 6 | 88 ± 10 | 69 ± 11 | 117 ± 4 | 78 ± 10 | 76 ± 10 | 82 ± 3 | 120 ± 10 | 155 ± 3 | not affected | anti-adhesion activity (P. aeruginosa PAO1-GFP): no significant anti-adhesion activity |
